Data published in ChEMBL document CHEMBL1240295, “Specificity and mechanism of action of some commonly used protein kinase inhibitors” (Biochem J, 2000).

Key:
[1] = target: Mitogen-activated protein kinase 1 (Homo sapiens) (UniProt P28482); details: at 10 µM
Description: Inhibition of Gst-tagged human MAPK2/ERK2 expressed in Escherichia coli at 10 uM

[2] = target: Myosin light chain kinase, smooth muscle (Gallus gallus) (UniProt P11799); assay: Inhibition of chicken SmMLCK expressed in Escherichia coli at 10 uM; details: Ovis aries
[3] = target: RAC-alpha serine/threonine-protein kinase (Homo sapiens) (UniProt P31749); details: Sf9, at 10 µM
Description: Inhibition of human PKBalpha expressed in SF9 cells at 10 uM

[4] = target: Tyrosine-protein kinase Lck (Homo sapiens) (UniProt P06239); details: Sf9, at 10 µM
Description: Inhibition of His-tagged human LCK expressed in Sf9 cells at 10 uM

Bos taurus [5] = organism: Bos taurus; details: at 10 µM
Description: Inhibition of bovine heart PKA at 10 uM

[6] = target: T1, MAP kinase-activated protein kinase 5 (Homo sapiens) (UniProt Q8IW41); details: Sf9, at 10 µM
T1 sequence (whole entry): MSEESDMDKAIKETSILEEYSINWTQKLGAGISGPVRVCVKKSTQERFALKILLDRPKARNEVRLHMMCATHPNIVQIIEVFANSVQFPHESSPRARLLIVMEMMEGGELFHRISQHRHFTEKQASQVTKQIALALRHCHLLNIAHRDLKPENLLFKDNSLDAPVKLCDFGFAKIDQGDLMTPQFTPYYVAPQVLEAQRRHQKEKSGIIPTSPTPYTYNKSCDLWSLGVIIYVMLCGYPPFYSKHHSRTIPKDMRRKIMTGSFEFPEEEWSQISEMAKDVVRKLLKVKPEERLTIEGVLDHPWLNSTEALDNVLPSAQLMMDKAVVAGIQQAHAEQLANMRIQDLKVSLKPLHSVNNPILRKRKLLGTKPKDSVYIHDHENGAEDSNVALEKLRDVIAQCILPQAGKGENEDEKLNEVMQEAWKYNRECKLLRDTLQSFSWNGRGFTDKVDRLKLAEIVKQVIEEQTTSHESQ
Description: Inhibition of His-tagged human PRAK expressed in Sf9 cells at 10 uM

Rattus norvegicus [7] = organism: Rattus norvegicus; details: at 10 µM
Description: Inhibition of rat liver AMPK at 10 uM

[8] = target: T2, Glycogen synthase kinase-3 beta (Homo sapiens, UniProt P49841); details: Sf21, at 10 µM
Description: Inhibition of His-tagged human GSK3b expressed in Sf21 cells at 10 uM

Oryctolagus cuniculus [9] = organism: Oryctolagus cuniculus; details: at 10 µM
Description: Inhibition of rabbit MKK1 expressed in Escherichia coli at 10 uM

[10] = target: T3, Serine/threonine-protein kinase Chk1 (Homo sapiens) (UniProt O14757); details: at 10 µM
T3 sequence (whole entry): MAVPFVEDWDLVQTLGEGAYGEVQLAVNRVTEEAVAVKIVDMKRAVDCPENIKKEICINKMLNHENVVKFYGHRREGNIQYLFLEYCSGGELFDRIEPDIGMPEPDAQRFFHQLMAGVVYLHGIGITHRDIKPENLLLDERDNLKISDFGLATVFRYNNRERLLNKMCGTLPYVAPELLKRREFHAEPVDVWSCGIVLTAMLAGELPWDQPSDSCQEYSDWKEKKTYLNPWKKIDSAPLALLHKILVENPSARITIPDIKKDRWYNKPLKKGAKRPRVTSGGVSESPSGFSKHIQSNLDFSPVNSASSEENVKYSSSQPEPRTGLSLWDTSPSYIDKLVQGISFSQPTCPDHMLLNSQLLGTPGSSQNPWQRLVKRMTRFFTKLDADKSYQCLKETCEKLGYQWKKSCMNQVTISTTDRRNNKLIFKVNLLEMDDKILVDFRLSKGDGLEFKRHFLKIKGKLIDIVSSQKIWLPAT
Description: Inhibition of His-tagged human CHK1 expressed in Escherichia coli at 10 uM

[11] = target: Rho-associated protein kinase 2 (Rattus norvegicus) (UniProt Q62868); details: Sf9, at 10 µM
Description: Inhibition of rat ROCK2 expressed in Sf9 cells at 10 uM

[12] = target: Mitogen-activated protein kinase 11 (Homo sapiens) (UniProt Q15759); details: at 10 µM
Description: Inhibition of Gst-tagged human SAPK2b/p38--beta-2 expressed in Escherichia coli at 10 uM

[13] = target: T4, MAP kinase-activated protein kinase 2 (Homo sapiens, UniProt P49137); details: at 10 µM
Description: Inhibition of Gst-tagged human MAPKAPK2 expressed in Escherichia coli at 10 uM

[14] = target: Mitogen-activated protein kinase 8 (Homo sapiens) (UniProt P45983); details: at 10 µM
Description: Inhibition of Gst-tagged human JNK1a1 expressed in Escherichia coli at 10 uM

[15] = Inhibition of His-tagged human CAMK2 expressed in Escherichia coli
[16] = target: T5, Ribosomal protein S6 kinase beta-1 (Homo sapiens, UniProt P23443); details: at 10 µM
Description: Inhibition of His-tagged human S6K1 expressed in Escherichia coli at 10 uM

[17] = target: T6, Mitogen-activated protein kinase 13 (Homo sapiens) (UniProt O15264); details: at 10 µM
T6 sequence (whole entry): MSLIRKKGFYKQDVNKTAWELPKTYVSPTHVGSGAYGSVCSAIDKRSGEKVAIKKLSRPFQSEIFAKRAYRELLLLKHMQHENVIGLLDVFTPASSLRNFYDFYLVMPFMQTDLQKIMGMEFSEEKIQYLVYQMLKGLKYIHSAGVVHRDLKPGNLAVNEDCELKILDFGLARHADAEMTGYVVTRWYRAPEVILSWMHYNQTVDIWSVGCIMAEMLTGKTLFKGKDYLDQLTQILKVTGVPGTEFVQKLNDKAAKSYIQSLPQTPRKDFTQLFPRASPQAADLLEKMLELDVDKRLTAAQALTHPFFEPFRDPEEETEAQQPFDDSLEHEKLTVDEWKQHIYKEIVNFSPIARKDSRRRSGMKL
Description: Inhibition of Gst-tagged human SAPK4/p38delta expressed in Escherichia coli at 10 uM

[18] = target: T7, Casein kinase II (Homo sapiens) (UniProt P67870+P68400+P19784); details: Sf9, at 10 µM
Description: Inhibition of His-tagged human CK2 expressed in Sf9 cells at 10 uM

Oryctolagus cuniculus [19] = organism: Oryctolagus cuniculus; details: Muscle tissue, at 10 µM
Description: Inhibition of PHK from rabbit skeletal muscle at 10 uM

[20] = target: T8, Serine/threonine-protein kinase Sgk1 (Homo sapiens) (UniProt O00141); details: Sf9, at 10 µM
T8 sequence (whole entry): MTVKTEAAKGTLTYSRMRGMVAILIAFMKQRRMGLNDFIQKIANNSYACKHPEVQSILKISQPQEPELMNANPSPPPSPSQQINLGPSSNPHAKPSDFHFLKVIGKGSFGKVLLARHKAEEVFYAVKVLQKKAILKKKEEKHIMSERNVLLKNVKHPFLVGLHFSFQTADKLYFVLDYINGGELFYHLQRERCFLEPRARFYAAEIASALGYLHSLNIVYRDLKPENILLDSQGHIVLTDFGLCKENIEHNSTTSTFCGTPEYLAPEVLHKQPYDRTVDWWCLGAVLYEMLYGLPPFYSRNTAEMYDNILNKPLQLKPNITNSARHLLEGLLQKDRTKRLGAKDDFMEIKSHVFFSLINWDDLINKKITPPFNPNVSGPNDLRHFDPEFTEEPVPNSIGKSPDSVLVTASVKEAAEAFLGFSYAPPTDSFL
Description: Inhibition of His-tagged human SGK expressed in Sf9 cells at 10 uM

[21] = target: T9, Ribosomal protein S6 kinase alpha-5 (Homo sapiens, UniProt O75582); details: Sf9, at 10 µM
Description: Inhibition of His-tagged human MSK1 expressed in Sf9 cells at 10 uM

Homo sapiens = organism: Homo sapiens; assay: Inhibition of His-tagged human CAMK2 expressed in Escherichia coli at 10 uM
[22] = target: 3-phosphoinositide-dependent protein kinase 1 (Homo sapiens) (UniProt O15530); details: Sf21, at 10 µM
Oryctolagus cuniculus [23] = organism: Oryctolagus cuniculus; details: Muscle tissue, at 10 µM; remark: listed apart in the source
Description: Inhibition of MAPKAPK1b from rabbit skeletal muscle at 10 uM

[24] = target: T4, MAP kinase-activated protein kinase 2; assay: Inhibition of His-tagged human MAPKAPK2 expressed in Escherichia coli at 50 uM; values are per cent of control
[25] = target: T5, Ribosomal protein S6 kinase beta-1; assay: Inhibition of His-tagged human S6K1 expressed in Escherichia coli at 50 uM; values are per cent of control
[26] = target: T7, Casein kinase II (Homo sapiens); assay: Inhibition of His-tagged human CK2 expressed in Sf9 cells at 50 uM; values are per cent of control
[27] = target: Phosphatidylinositol 4,5-bisphosphate 3-kinase catalytic subunit alpha isoform (Bos taurus) (UniProt P32871); details: Sf9, 50 uM
Description: Inhibition of His-tagged bovine PI3K expressed in Sf9 cells at 50 uM

Rattus norvegicus [28] = organism: Rattus norvegicus; assay: Inhibition of rat liver AMPK at 50 uM; values are per cent of control
[29] = target: T3, Serine/threonine-protein kinase Chk1 (Homo sapiens); assay: Inhibition of His-tagged human CHK1 expressed in Escherichia coli at 50 uM; values are per cent of control
Oryctolagus cuniculus [30] = organism: Oryctolagus cuniculus; assay: Inhibition of rabbit MKK1 expressed in Escherichia coli at 50 uM; values are per cent of control
[31] = target: RAC-alpha serine/threonine-protein kinase (Homo sapiens) (UniProt P31749); assay: Inhibition of human PKBalpha expressed in SF9 cells at 50 uM; values are per cent of control
[32] = target: Protein kinase C alpha type (Homo sapiens, UniProt P17252); assay: Inhibition of His-tagged human PKCalpha expressed in Escherichia coli at 50 uM; values are per cent of control
[33] = target: [Pyruvate dehydrogenase (acetyl-transferring)] kinase isozyme 1, mitochondrial (Homo sapiens) (UniProt Q15118); assay: Inhibition of His-tagged human PDK1 expressed in Sf21 cells at 50 uM; details: values are per cent of control
Oryctolagus cuniculus [34] = organism: Oryctolagus cuniculus; assay: Inhibition of MAPKAPK1b from rabbit skeletal muscle at 50 uM; values are per cent of control; details: Muscle tissue
[35] = target: Mitogen-activated protein kinase 1 (Homo sapiens) (UniProt P28482); assay: Inhibition of His-tagged human MAPK2/ERK2 expressed in Escherichia coli at 50 uM; values are per cent of control
[36] = target: T2, Glycogen synthase kinase-3 beta; assay: Inhibition of His-tagged human GSK3b expressed in Sf21 cells at 50 uM; values are per cent of control
[37] = target: T9, Ribosomal protein S6 kinase alpha-5; assay: Inhibition of His-tagged human MSK1 expressed in Sf9 cells at 50 uM; values are per cent of control
[38] = target: Mitogen-activated protein kinase 11 (Homo sapiens) (UniProt Q15759); assay: Inhibition of His-tagged human SAPK2b/p38b2 expressed in Escherichia coli at 50 uM; values are per cent of control
Bos taurus [39] = organism: Bos taurus; assay: Inhibition of bovine heart PKA at 50 uM; values are per cent of control
Casein kinase II = Casein kinase II (Homo sapiens, UniProt P19784+P67870+P68400); assay: Inhibition of His-tagged human CK2 expressed in Sf9 cells
[40] = target: T8, Serine/threonine-protein kinase Sgk1 (Homo sapiens); assay: Inhibition of His-tagged human SGK expressed in Sf9 cells at 50 uM; values are per cent of control
[41] = target: T1, MAP kinase-activated protein kinase 5 (Homo sapiens); assay: Inhibition of His-tagged human PRAK expressed in Sf9 cells at 50 uM; values are per cent of control
[42] = target: Mitogen-activated protein kinase 8 (Homo sapiens) (UniProt P45983); assay: Inhibition of His-tagged human JNK1a1/SAPK1c expressed in Escherichia coli at 50 uM; values are per cent of control
[43] = target: Rho-associated protein kinase 2 (Rattus norvegicus) (UniProt Q62868); assay: Inhibition of rat ROCK2 expressed in Sf9 cells at 50 uM; details: values are per cent of control
[44] = target: T6, Mitogen-activated protein kinase 13 (Homo sapiens); assay: Inhibition of His-tagged human SAPK4/p38delta expressed in Escherichia coli at 50 uM; values are per cent of control
Oryctolagus cuniculus [45] = organism: Oryctolagus cuniculus; assay: Inhibition of PHK from rabbit skeletal muscle at 50 uM; values are per cent of control; details: Muscle tissue

T9 sequence (O75582 whole entry, looked up): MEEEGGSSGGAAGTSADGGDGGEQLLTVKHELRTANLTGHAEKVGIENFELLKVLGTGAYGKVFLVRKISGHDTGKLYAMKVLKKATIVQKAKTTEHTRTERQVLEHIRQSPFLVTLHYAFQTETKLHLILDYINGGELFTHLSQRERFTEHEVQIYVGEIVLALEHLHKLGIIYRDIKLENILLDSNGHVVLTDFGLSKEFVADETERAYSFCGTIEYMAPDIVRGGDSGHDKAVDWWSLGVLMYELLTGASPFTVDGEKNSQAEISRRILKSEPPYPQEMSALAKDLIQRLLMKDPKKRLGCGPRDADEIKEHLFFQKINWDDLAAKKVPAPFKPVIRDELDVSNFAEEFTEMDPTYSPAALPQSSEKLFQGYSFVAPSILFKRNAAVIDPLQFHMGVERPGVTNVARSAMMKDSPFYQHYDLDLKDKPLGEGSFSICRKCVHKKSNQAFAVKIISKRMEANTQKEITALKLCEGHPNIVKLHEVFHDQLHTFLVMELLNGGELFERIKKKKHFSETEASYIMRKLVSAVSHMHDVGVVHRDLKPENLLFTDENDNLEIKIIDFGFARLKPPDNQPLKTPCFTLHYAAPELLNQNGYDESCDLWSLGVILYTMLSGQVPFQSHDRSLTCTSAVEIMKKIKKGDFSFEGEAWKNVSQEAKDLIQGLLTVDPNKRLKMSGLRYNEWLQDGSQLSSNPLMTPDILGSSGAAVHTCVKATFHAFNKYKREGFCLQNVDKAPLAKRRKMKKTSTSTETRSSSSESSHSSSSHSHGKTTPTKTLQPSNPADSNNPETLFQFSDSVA
T4 sequence (P49137 whole entry, looked up): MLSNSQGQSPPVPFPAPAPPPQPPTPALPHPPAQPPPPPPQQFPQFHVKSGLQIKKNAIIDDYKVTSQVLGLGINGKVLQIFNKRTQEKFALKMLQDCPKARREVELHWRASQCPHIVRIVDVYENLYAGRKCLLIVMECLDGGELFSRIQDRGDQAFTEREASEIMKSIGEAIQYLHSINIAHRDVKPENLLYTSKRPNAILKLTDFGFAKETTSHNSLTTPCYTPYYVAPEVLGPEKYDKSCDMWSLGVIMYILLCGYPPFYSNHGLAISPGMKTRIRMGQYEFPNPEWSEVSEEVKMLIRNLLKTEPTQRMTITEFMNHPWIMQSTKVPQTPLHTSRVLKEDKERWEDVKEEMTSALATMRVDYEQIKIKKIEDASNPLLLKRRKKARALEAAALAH
T2 sequence (P49841 whole entry, looked up): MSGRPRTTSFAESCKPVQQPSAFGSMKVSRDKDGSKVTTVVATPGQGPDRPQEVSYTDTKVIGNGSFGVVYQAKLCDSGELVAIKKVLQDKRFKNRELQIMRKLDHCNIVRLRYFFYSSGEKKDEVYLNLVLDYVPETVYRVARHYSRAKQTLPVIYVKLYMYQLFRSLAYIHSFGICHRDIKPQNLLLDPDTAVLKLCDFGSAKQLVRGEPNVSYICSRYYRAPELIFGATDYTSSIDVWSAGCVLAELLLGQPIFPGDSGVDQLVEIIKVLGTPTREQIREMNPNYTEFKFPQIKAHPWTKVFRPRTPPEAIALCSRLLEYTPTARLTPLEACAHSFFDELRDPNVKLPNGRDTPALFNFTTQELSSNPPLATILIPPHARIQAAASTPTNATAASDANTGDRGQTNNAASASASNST
Sequence of RAC-alpha serine/threonine-protein kinase (Homo sapiens) (P31749 whole entry): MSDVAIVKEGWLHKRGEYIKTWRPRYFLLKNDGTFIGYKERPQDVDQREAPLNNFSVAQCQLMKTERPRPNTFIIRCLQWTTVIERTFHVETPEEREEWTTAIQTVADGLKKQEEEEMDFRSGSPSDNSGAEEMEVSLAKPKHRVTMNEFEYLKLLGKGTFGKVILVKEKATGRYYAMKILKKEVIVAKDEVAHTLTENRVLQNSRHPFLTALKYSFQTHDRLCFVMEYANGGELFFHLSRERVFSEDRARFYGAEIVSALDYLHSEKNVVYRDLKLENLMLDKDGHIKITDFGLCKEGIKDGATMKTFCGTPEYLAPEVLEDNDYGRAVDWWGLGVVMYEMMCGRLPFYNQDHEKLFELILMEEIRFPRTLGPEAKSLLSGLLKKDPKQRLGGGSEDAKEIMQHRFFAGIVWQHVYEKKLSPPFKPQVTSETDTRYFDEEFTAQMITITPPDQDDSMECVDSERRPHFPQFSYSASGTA
Sequence of Mitogen-activated protein kinase 11 (Homo sapiens) (Q15759 whole entry): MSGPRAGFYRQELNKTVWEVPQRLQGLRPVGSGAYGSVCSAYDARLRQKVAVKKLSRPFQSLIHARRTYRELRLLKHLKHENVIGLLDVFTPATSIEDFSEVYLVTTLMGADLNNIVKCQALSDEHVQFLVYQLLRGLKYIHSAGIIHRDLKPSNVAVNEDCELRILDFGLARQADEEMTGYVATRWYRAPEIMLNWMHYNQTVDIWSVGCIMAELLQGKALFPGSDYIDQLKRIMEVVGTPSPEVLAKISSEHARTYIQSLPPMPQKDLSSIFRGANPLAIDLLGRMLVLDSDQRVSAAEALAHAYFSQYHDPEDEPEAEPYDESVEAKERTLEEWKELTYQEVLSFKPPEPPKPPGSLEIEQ
T5 sequence (P23443 whole entry, looked up): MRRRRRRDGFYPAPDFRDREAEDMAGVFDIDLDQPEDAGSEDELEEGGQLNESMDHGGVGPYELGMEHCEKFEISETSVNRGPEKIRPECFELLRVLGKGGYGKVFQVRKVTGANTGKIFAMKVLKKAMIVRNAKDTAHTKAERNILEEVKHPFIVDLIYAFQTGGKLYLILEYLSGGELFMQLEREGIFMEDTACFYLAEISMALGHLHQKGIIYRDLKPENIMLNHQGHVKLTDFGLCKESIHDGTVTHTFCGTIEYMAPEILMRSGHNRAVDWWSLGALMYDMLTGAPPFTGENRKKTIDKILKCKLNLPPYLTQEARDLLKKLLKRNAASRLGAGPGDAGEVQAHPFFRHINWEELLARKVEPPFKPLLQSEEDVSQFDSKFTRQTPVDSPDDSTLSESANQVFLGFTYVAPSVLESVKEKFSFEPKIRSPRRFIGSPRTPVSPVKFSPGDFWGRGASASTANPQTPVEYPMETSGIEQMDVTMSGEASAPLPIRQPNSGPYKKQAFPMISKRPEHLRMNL
Sequence of Mitogen-activated protein kinase 8 (Homo sapiens) (P45983 whole entry): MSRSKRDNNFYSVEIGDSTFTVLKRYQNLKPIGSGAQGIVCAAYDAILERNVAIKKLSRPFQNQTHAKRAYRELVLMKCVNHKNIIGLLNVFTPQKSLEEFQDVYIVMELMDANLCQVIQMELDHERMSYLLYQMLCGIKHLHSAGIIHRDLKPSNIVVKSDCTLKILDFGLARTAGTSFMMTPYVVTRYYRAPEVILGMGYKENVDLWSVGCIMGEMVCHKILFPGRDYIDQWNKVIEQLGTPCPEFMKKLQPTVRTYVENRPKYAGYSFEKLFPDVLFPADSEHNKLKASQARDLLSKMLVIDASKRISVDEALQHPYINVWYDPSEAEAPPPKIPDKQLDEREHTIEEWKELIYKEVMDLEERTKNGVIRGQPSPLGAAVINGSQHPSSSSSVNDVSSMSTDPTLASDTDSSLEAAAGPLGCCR
Sequence of Rho-associated protein kinase 2 (Rattus norvegicus) (Q62868 whole entry, looked up): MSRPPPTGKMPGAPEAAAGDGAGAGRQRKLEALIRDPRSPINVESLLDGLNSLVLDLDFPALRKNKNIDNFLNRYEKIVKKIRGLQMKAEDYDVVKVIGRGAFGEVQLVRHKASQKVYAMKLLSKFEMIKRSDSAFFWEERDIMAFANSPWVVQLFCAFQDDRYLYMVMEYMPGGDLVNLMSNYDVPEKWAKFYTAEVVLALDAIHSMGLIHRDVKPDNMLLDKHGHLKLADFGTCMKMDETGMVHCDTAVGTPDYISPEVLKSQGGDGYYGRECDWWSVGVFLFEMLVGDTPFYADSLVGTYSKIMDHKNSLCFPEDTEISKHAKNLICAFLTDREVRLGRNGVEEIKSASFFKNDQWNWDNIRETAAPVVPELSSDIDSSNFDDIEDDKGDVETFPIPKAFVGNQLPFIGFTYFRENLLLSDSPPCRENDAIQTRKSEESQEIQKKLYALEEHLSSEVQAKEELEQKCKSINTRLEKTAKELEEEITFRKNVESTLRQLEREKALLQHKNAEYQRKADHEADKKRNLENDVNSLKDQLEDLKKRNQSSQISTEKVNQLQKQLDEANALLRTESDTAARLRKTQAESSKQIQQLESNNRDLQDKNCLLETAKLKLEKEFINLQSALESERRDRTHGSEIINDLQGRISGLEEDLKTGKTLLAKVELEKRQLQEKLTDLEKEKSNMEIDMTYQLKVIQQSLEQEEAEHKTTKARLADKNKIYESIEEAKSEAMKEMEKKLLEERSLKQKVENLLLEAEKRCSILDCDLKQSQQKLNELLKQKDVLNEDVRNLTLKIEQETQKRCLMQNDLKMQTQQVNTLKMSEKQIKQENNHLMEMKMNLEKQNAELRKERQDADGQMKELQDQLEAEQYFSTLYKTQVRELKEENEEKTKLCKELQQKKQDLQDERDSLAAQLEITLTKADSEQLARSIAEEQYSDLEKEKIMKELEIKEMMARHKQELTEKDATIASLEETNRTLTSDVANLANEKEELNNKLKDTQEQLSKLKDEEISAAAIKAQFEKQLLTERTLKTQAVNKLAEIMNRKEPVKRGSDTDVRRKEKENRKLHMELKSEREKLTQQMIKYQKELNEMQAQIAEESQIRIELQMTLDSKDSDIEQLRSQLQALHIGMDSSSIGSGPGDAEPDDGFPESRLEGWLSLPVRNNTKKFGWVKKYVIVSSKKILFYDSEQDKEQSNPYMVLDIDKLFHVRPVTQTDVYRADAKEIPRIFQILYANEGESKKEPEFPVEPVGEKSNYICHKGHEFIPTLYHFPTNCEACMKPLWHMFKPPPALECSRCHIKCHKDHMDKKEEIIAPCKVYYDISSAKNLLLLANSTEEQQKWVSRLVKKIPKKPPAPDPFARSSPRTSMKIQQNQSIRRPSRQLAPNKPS

CN([C@@H](Cc1ccc(OS(=O)(=O)c2cccc3cnccc23)cc1)C(=O)N1CCN(c2ccccc2)CC1)S(=O)(=O)c1cccc2cnccc12
residual activity [1]: 92%
inhibition [2]: 96%
residual activity [3]: 67%
residual activity [4]: 92%
residual activity (Bos taurus [5]): 94%
residual activity [6]: 36%
residual activity (Rattus norvegicus [7]): 97%
residual activity [8]: 38%
residual activity (Oryctolagus cuniculus [9]): 101%
residual activity [10]: 104%
residual activity [11]: 88%
residual activity [12]: 98%
residual activity [13]: 59%
residual activity [14]: 104%
IC50 [15]: 0.5 µM
residual activity [16]: 93%
residual activity [17]: 110%
residual activity [18]: 103%
level, % of control (Oryctolagus cuniculus [19]): 106%
residual activity [20]: 78%
residual activity [21]: 81%
inhibition (Homo sapiens): 0%
residual activity [22]: 70%
level, % of control (Oryctolagus cuniculus [23]): 89%

O=c1cc(N2CCOCC2)oc2c(-c3ccccc3)cccc12 [LY-294002]
residual activity [24]: 74%
residual activity [25]: 81%
residual activity [26]: 18%
residual activity [27]: 13%
residual activity (Rattus norvegicus [28]): 103%
residual activity [29]: 90%
residual activity (Oryctolagus cuniculus [30]): 101%
residual activity [31]: 60%
residual activity [32]: 91%
residual activity [33]: 76%
level, % of control (Oryctolagus cuniculus [34]): 70%
residual activity [35]: 114%
residual activity [36]: 53%
residual activity [37]: 83%
residual activity [38]: 98%
residual activity (Bos taurus [39]): 91%
IC50 (Casein kinase II): 6.9 µM
residual activity [40]: 72%
residual activity [41]: 68%
residual activity [42]: 108%
residual activity [43]: 104%
residual activity [44]: 94%
level, % of control (Oryctolagus cuniculus [45]): 44%
